Holding throughout (assay type): binding
Assay [1] deals with T1, PCSK9 (Homo sapiens, UniProt Q8NBP7).
T1 construct: biotin (biotinylated); purchased
The assay is described as follows: PCSK9 Alexa FRET Ultra TR-FRET assay. Summed up:
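TR-FRET read after ≥2 h at room temperature between europium-PCSK9 and an AlexaFluor cyclic peptide, stated as a 1920 nM solution. Sigmoidal nonlinear regression gives IC50, and Ki in nM follows from the peptide KD; europium counts are monitored for compound interference.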
On the technique in general: Time-resolved FRET reads energy transfer from a long-lived donor to a nearby acceptor.

Assay [2] has as its target T1, PCSK9. The assay is described as follows: PCSK9 Alexa FRET Standard TR-FRET assay. The note with it: Ki calculated from IC50 and KD of AF cyclic peptide Reagent A; 0.5 nM PCSK9, 20 nM AF cyclic peptide; read-out: Alexa FRET Stdt TR-FRET. In short, it runs like this:
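Ki (nM) calculated from sigmoidal-fit IC50 and the KD of an AlexaFluor-labelled cyclic peptide (20 nM final) competing with compound for biotinylated PCSK9 (0.5 nM) bound to Eu-streptavidin (1.25 nM). Incubation at least 2 h, room temperature, HEPES pH 7.4 buffer with CaCl2; falling europium counts flag false positives.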

In assay [3] the target is T1, PCSK9. Briefly: PCSK9 Alexa FRET Plus TR-FRET assay. Summed up: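 Compounds displace an AlexaFluor-labeled cyclic peptide (1920 nM solution, not final) from europium-tagged PCSK9; time-resolved FRET read after ≥2 h at room temperature. Ki derived from fitted IC50 and peptide KD, europium donor counts monitored to detect compound interference, results given in nanomolar.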

Where [4] appears, read: Ki Ultra, calculated from IC50 and KD of AF cyclic peptide, 0.5 nM PCSK9, 960 nM AF cyclic peptide, read-out: Alexa FRET Ultra TR-FRET.
The mark [5] stands for this setting: Ki calculated from IC50 and KD of AF cyclic peptide Reagent B, 0.5 nM PCSK9, 960 nM AF cyclic peptide, read-out: Alexa FRET Plus TR-FRET.

Bounds are passed on as bounds.

T1 sequence (Q8NBP7 153-692): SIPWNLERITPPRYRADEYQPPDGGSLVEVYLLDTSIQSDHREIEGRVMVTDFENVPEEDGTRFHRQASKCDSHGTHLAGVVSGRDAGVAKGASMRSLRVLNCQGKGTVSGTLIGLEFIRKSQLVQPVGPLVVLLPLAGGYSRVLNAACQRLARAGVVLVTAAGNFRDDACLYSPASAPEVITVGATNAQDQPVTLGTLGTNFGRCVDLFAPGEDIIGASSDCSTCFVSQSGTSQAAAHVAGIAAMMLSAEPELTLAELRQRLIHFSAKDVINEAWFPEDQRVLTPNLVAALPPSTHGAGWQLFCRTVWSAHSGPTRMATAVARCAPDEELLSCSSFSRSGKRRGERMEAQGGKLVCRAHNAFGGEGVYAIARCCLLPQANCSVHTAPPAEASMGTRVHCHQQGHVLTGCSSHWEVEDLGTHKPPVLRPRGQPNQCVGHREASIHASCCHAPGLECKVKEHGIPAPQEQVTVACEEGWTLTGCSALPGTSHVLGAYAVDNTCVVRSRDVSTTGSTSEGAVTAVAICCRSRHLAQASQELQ

Consider `COc1ccc(C[C@@H]2NC(=O)[C@H]([C@@H](C)O)NC(=O)[C@@H]3[C@@H]4CCN3C(=O)[C@@H]3Cc5cn(c6ccc(F)cc56)CCCCCCN(Cc5ccc(cc5)CCNC(=O)[C@]5(C)CCCN5C2=O)C(=O)CCC(=O)N[C@@H](CNC(=O)COCCOCC[N+](C)(C)CCOCCNC(=O)COCCOCCNC(=O)COCCOCCNC(=O)CC[C@H](NC(=O)CC[C@H](NC(=O)CCCCCCCCCCCCCCC(=O)O)C(=O)O)C(=O)O)C(=O)N[C@H](CNC(=O)CCOCCOCC[N+](C)(C)C)C(=O)N[C@@H](Cc2cccc(c2)CNC(=O)CO4)C(=O)N3)cc1` [Ex-66], for which the Ki in assay [1] (setting [4]) is 0.027 nM; in assay [2] it was less than 1.26 nM; in assay [3] (setting [5]), 0.007 nM.
As for `COc1ccc(C[C@@H]2NC(=O)[C@H]([C@@H](C)O)NC(=O)[C@@H]3[C@@H]4CCN3C(=O)[C@@H]3Cc5cn(c6ccc(F)cc56)CCCCCCN(Cc5ccc(cc5)CCNC(=O)[C@]5(C)CCCN5C2=O)C(=O)CCC(=O)N[C@@H](C)C(=O)N[C@H](CNC(=O)COCC[N+](C)(C)CCOCCNC(=O)COCCOCCNC(=O)COCCOCCNC(=O)CC[C@H](NC(=O)CCCCCCCCCCCCCCCCC(=O)O)C(=O)O)C(=O)N[C@@H](Cc2cccc(c2)CNC(=O)CO4)C(=O)N3)cc1` [Ex-35], the Ki was 0.009 nM in assay [1] (setting [4]), less than 1.26 nM in assay [2] and 0.007 nM in assay [3] (setting [5]).
In the case of `COc1ccc(C[C@@H]2NC(=O)[C@H]([C@@H](C)O)NC(=O)[C@@H]3[C@@H]4CCN3C(=O)[C@@H]3Cc5cn(c6ccc(F)cc56)CCCCCCN(Cc5ccc(cc5)CCNC(=O)[C@]5(C)CCCN5C2=O)C(=O)CCC(=O)N[C@@H](CNC(=O)COCCOCCNC(=O)CC[C@H](NC(=O)CCOCCOCC[N+](C)(C)CCNC(=O)COCCOCCNC(=O)COCCOCCNC(=O)CC[C@H](NC(=O)CCCCCCCCCCCCCCCCC(=O)O)C(=O)O)C(=O)O)C(=O)N[C@H](C)C(=O)N[C@@H](Cc2cccc(c2)CNC(=O)CO4)C(=O)N3)cc1` [Ex-61], the Ki in assay [1] (setting [4]) is 0.131 nM; in assay [2], less than 1.26 nM; in assay [3] (setting [5]), 0.049 nM.
For the molecule `CCCCCCC(=O)NCCCCCCCC(=O)N[C@@H](CCC(=O)NCCOCCOCC(=O)NCCOCCOCC(=O)NCC[N+](C)(C)CCCCCC(=O)NC[C@H]1NC(=O)[C@H](C)NC(=O)CCC(=O)N2CCCCCCn3cc(c4cc(F)ccc43)C[C@@H]3NC(=O)[C@H](Cc4cccc(c4)CNC(=O)CO[C@H]4CCN(C3=O)[C@@H]4C(=O)N[C@@H]([C@@H](C)O)C(=O)N[C@@H](Cc3ccc(OC)cc3)C(=O)N3CCC[C@@]3(C)C(=O)NCCc3ccc(cc3)C2)NC1=O)C(=O)O` [Ex-19], the Ki in assay [1] (setting [4]) was 0.001 nM; in assay [2] it was less than 1.26 nM; in assay [3] (setting [5]), less than 0.006 nM.
As for `COc1ccc(C[C@@H]2NC(=O)[C@H]([C@@H](C)O)NC(=O)[C@@H]3[C@@H]4CCN3C(=O)[C@@H]3Cc5cn(c6ccc(F)cc56)CCCCCCN(Cc5ccc(cc5)CCNC(=O)[C@]5(C)CCCN5C2=O)C(=O)CCC(=O)N[C@@H](C)C(=O)N[C@H](CNC(=O)CCC[N+](C)(C)CCNC(=O)COCCOCCNC(=O)CC[C@H](NC(=O)CC[C@H](NC(=O)CCCCCCCCCCCCCCCCC(=O)O)C(=O)O)C(=O)O)C(=O)N[C@@H](Cc2cccc(c2)CNC(=O)CO4)C(=O)N3)cc1` [Ex-14], the values for the Ki in assay [1], in assay [2] and in assay [3] were 0.005 nM, less than 1.26 nM and less than 0.006 nM, respectively.
Take `COc1ccc(C[C@@H]2NC(=O)[C@H]([C@@H](C)O)NC(=O)[C@@H]3[C@@H]4CCN3C(=O)[C@@H]3Cc5cn(c6ccc(F)cc56)CCCCCCN(Cc5ccc(cc5)CCNC(=O)[C@]5(C)CCCN5C2=O)C(=O)CCC(=O)N[C@@H](C)C(=O)N[C@H](CNC(=O)CCCCC[N+](C)(C)CCNC(=O)COCCOCCNC(=O)COCCOCCNC(=O)CC[C@H](NC(=O)CCCCCCCCCCCCCCCCC(=O)O)C(=O)O)C(=O)N[C@@H](Cc2cccc(c2)CNC(=O)CO4)C(=O)N3)cc1` [Example 2]: the Ki was 0.006 nM in assay [1], less than 1.26 nM in assay [2] and 0.014 nM in assay [3].
Consider `COc1ccc(C[C@@H]2NC(=O)[C@H]([C@@H](C)O)NC(=O)[C@@H]3[C@@H]4CCN3C(=O)[C@@H]3Cc5cn(c6ccc(F)cc56)CCCCCCN(Cc5ccc(cc5)CCNC(=O)[C@]5(C)CCCN5C2=O)C(=O)CCC(=O)N[C@@H](CNC(=O)CCOCCOCC[N+](C)(C)CCNC(=O)COCCOCCNC(=O)COCCOCCNC(=O)CC[C@H](NC(=O)CCCCCCCCCCCCCCC(=O)O)C(=O)O)C(=O)N[C@H](CNC(=O)CCOCCOCC[N+](C)(C)C)C(=O)N[C@@H](Cc2cccc(c2)CNC(=O)CO4)C(=O)N3)cc1` [Ex-64], for which the Ki in assay [1] (setting [4]) was 0.028 nM; in assay [2], less than 1.26 nM; in assay [3] (setting [5]), 0.012 nM.
Take `COc1ccc(C[C@@H]2NC(=O)[C@H]([C@@H](C)O)NC(=O)[C@@H]3[C@@H]4CCN3C(=O)[C@@H]3Cc5cn(c6ccc(F)cc56)CCCCCCN(Cc5ccc(cc5)CCNC(=O)[C@]5(C)CCCN5C2=O)C(=O)CCC(=O)N[C@@H](C)C(=O)N[C@H](CNC(=O)CCOCCOCC[N+](C)(C)CCNC(=O)COCCOCCNC(=O)COCCOCCNC(=O)CC(CC(=O)O)NC(=O)CC[C@H](NC(=O)CCCCCCCCCCCCCCCCC(=O)O)C(=O)O)C(=O)N[C@@H](Cc2cccc(c2)CNC(=O)CO4)C(=O)N3)cc1` (stereo partly drawn) [Ex-16]: the Ki is 0.008 nM in assay [1], less than 1.26 nM in assay [2] and 0.014 nM in assay [3].
In the case of `CCCCCCC(=O)NCCCCCCCC(=O)NCC[N+](C)(C)CCOCCOCCC(=O)NC[C@H]1NC(=O)[C@H](C)NC(=O)CCC(=O)N2CCCCCCn3cc(c4cc(F)ccc43)C[C@@H]3NC(=O)[C@H](Cc4cccc(c4)CNC(=O)CO[C@H]4CCN(C3=O)[C@@H]4C(=O)N[C@@H]([C@@H](C)O)C(=O)N[C@@H](Cc3ccc(OC)cc3)C(=O)N3CCC[C@@]3(C)C(=O)NCCc3ccc(cc3)C2)NC1=O` [Ex-20], the Ki in assay [1] (setting [4]) was 0.001 nM; in assay [2], less than 1.26 nM; in assay [3] (setting [5]), less than 0.006 nM.
Turning to `COc1ccc(C[C@@H]2NC(=O)[C@H]([C@@H](C)O)NC(=O)[C@@H]3[C@@H]4CCN3C(=O)[C@@H]3Cc5cn(c6ccc(F)cc56)CCCCCCN(Cc5ccc(cc5)CCNC(=O)[C@]5(C)CCCN5C2=O)C(=O)CCC(=O)N[C@@H](CNC(=O)COCCOCC[N+](C)(C)CCOCCNC(=O)COCCOCCNC(=O)COCCOCCNC(=O)CC[C@H](NC(=O)CC[C@H](NC(=O)CCCCCCCCCCCCCCC(=O)O)C(=O)O)C(=O)O)C(=O)N[C@H](C)C(=O)N[C@@H](Cc2cccc(c2)CNC(=O)CO4)C(=O)N3)cc1` [Ex-60], the Ki in assay [1] (setting [4]) is 0.062 nM; in assay [2], less than 1.26 nM; in assay [3] (setting [5]), 0.008 nM.
With `COc1ccc(C[C@@H]2NC(=O)[C@H]([C@@H](C)O)NC(=O)[C@@H]3[C@@H]4CCN3C(=O)[C@@H]3Cc5cn(c6ccc(F)cc56)CCCCCCN(Cc5ccc(cc5)CCNC(=O)[C@]5(C)CCCN5C2=O)C(=O)CCC(=O)N[C@@H](C)C(=O)N[C@H](CNC(=O)COCCOCCNC(=O)CCCCC[N+](C)(C)CCNC(=O)COCCOCCNC(=O)COCCOCCNC(=O)CC[C@H](NC(=O)CCCCCCCCCCCCCCCCC(=O)O)C(=O)O)C(=O)N[C@@H](Cc2cccc(c2)CNC(=O)CO4)C(=O)N3)cc1` [Ex-6], the Ki is 0.012 nM in assay [1], less than 1.26 nM in assay [2] and 0.009 nM in assay [3].
For `CCCCCCCCCCCCCCCC(=O)NCC[N+](C)(C)CCOCCOCCC(=O)NCCOCCOCC(=O)NCCOCCOCC(=O)NC[C@H]1NC(=O)[C@H](C)NC(=O)CCC(=O)N2CCCCCCn3cc(c4cc(F)ccc43)C[C@@H]3NC(=O)[C@H](Cc4cccc(c4)CNC(=O)CO[C@H]4CCN(C3=O)[C@@H]4C(=O)N[C@@H]([C@@H](C)O)C(=O)N[C@@H](Cc3ccc(OC)cc3)C(=O)N3CCC[C@@]3(C)C(=O)NCCc3ccc(cc3)C2)NC1=O` [Ex-38], the figures for the Ki in assay [1] (setting [4]), in assay [2] and in assay [3] (setting [5]) were 0.012 nM, less than 1.26 nM and 0.013 nM, respectively.
For the molecule `COc1ccc(C[C@@H]2NC(=O)[C@H]([C@@H](C)O)NC(=O)[C@@H]3[C@@H]4CCN3C(=O)[C@@H]3Cc5cn(c6ccc(F)cc56)CCCCCN(Cc5ccc(cc5)CCNC(=O)[C@]5(C)CCCN5C2=O)C(=O)CCC(=O)N[C@@H](C)C(=O)N[C@H](CNC(=O)CCOCCOCC[N+](C)(C)CCNC(=O)COCCOCCNC(=O)COCCOCCNC(=O)CC[C@H](NC(=O)CC[C@H](NC(=O)CCCCCCCCCCCCCCCCC(=O)O)C(=O)O)C(=O)O)C(=O)N[C@@H](Cc2cccc(c2)CNC(=O)CO4)C(=O)N3)cc1` [Ex-51], the Ki in assay [1] was 0.005 nM; in assay [2], less than 1.26 nM; in assay [3] it was 0.007 nM.
With `COc1ccc(C[C@@H]2NC(=O)[C@H]([C@@H](C)O)NC(=O)[C@@H]3[C@@H]4CCN3C(=O)[C@@H]3Cc5cn(c6ccc(F)cc56)CCCCCCN(Cc5ccc(cc5)CCNC(=O)[C@]5(C)CCCN5C2=O)C(=O)CCC(=O)N[C@@H](C)C(=O)N[C@H](CNC(=O)COCCOCCNC(=O)COCCOCCNC(=O)CC[C@H](NC(=O)CCCCCCCCCCCCCCC(=O)O)C(=O)O)C(=O)N[C@@H](Cc2cccc(c2)CNC(=O)CO4)C(=O)N3)cc1` [Ex-41], the Ki in assay [1] (setting [4]) is 0.005 nM; in assay [2], less than 1.26 nM; in assay [3] (setting [5]), less than 0.006 nM.

The values above are taken from patent US12178842B2, “PCSK9 antagonist compounds” (MERCK SHARP & DOHME LLC, priority 2019, dated 2024).
